# Key:
# [1] = test system: chicken chorioallantoic membrane (CAM); experiment: chicken chorioallantoic membrane (CAM) angiogenesis assay; type: in vivo; conditions: FGF-2 or VEGF-A 0.2 mg per filter, HRGP 3 mg per filter, three days
# Protocol: The effect of HRGP on anglogenesis was tested in the chicken chorioallantoic membrane (CAM) assay.
# The conditions for the chorioallantoic membrane (CAM) assay followed essentially a previously described procedure (Friedlander et al (1995), Dixelius et al, (2000)). FGF-2 (Boehringer Mannheim) and VEGF-A (Peprotech) was used at 0.2 mg per filter and purified pHRGP or rHRGP at 3 mg per filter. The treated CAM's were inspected in a light microscope and the score, from 0 (low) to 3 (high) was based on the number of vessel branch points. Average values for 5-6 embryos were recorded.
# A filter disc soaked in vehicle or growth factor, with or without HRGP, was placed on top of the CAM in the vicinity of a large vessel and incubated for three days. Treatment of the CAM with growth factors, such as FGF-2, stimulated angiogenesis (FIG. 1C; Table 1).
# [2] = test system: T241 fibrosarcoma tumour vessels; experiment: CD31 staining and stereological quantification of tumour vascular parameters; type: in vivo, mice
# Protocol: Paraffin-sections of tumours from control- or HRGP-treated animals were immunohistochemically (IHC) stained for CD31 and Ki67 using a goat anti-mouse CD31 antibody (1506; Santa Cruz), diluted 1:500 and incubated at +4° C. over night, and a rat anti-mouse Ki67 antibody (TEC-3/M7249; DAKO) diluted 1:50 and incubated for 30 min. at room temperature, according to standard IHC procedures. Detection of apoptotic cells by the TUNEL-technique was performed using ApopTag™ (Intergen Company) according to the manufacturer's protocol. Stereological quantification of vascular parameters was performed as described earlier by Weibel et al (1979) and Gundersen et al (1988). Quantification of the relative number of Tunel- and Ki67-positive cells was calculated from approximately 3000 cells per tumour section, in three tumours from each treatment group. Significance at the level of P<0.05 was calculated using Students t-test.
# Sections of paraffin-embedded tumours from control (IgG)- or HRGP-treated mice were immunohistochemically stained for CD31 expression to visualise the vessels. […] Stereological quantification of vascular parameters was performed as described earlier by Weibel et al (1979) and Gundersen et al (1988). This method of quantifying tumour angiogenesis relates the length, volume and surface area of the vessels to tumour volume.
# [3] = test system: NIH 3T3 murine fibroblasts; experiment: chemotaxis assay in modified Boyden chamber, NIH 3T3 fibroblasts; type: cell-based; conditions: 100 ng/ml HRGP
# Protocol: The porcine aortic endothelial (PAE) cell line overexpressing FGF receptor-1 (FGFR-1) (Wennström et al 1992) was cultured in Ham's F12/10% fetal bovine serum (FCS) and NIH 3T3 murine fibroblasts were cultured in Dulbecco's modified medium (DMEM)/10% newborn calf serum (NCS). F12, DMEM and serum were bought from Life Technologies. Primary bovine adrenal cortex capillary endothelial (BCE) cells were cultured on gelatin-coated dishes in DMEM/10% NCS and 2 ng/ml FGF-2 (Boehringer Mannheim). For chemotaxis assays, both PAE and NIH 3T3 cells were serum-starved over night in 0.1% BSA and BCE cells in 0.5% NCS. Human embryonic kidney (HEK) 293-EBNA cells were cultured in DMEM/10% FCS. Approximately every second month they were given 0.25 mg/ml G418 (Calbiochem) to ensure positive selection of the EBNA-1 expressing cells.
# A migration assay was performed in a modified Boyden chamber as described earlier (Auerbach et al., 1991) using micropore polycarbonate filters (8 μm thick, 8 μm pore) coated with type-1 collagen solution at 100 μg/ml (Vitrogen 100, Collagen Corp). […] After 5 h at 37° C., migrated cells were stained with Giemsa and counted using an image analysis software (Easy Image Analysis) from Tekno Optik AB, Sweden. All samples were analysed in at least six parallel wells for each treatment.
# BCE cells = experiment: endothelial cell adhesion to matrix proteins; type: cell-based, bovine; conditions: HRGP 100 ng/ml, serum-free medium, 45 min
# Protocol: BCE cells were detached using non-enzymatic “Cell Dissociation Solution” (Sigma), washed and re-suspended in DMEM/0.1% BSA and FGF-2 (2 ng/ml). The cells were seeded in serum-free medium, with or without HRGP (100 ng/ml), into wells pre-coated with BSA, collagen I, collagen IV, laminin-1 or vitronectin, respectively (CytoMatrix ECM 205 kit, Chemicon). The cells were incubated for 45 (collagen I, collagen IV and vitronectin) or 60 minutes (laminin-1), washed three times in PBS and stained with Hoechst 33342 (1 μg/ml; Molecular Probes). The cells were micro-photographed using the 2× objective and the number of attached cells was counted using the “Easy Image Analysis” software (Tekno Optik). Statistical analysis was performed by ANOVA and Tukeys honestly significant difference (HSD) test. The standard deviation is based on the pooled variance.
# [4] = in vivo; cited from earlier work
substance,measurement,setting,value
"HRGP: mature human Histidine Rich Glycoprotein, about 507 amino acid residues",growth factor-induced CAM angiogenesis (newly formed vessels),[1],effectively inhibited
same,"vessel diameter in tumours, visual inspection of CD31 staining",[2]; HRGP-treated vs control,reduced vessel diameter
same,"vascular parameters (length, volume, surface area of vessels related to tumour volume)",[2]; tumours from HRGP-treated vs IgG-treated mice,all six vascular parameters determined were reduced
same,FGF-2-induced chemotaxis of NIH 3T3 murine fibroblasts,[3],not inhibited
same,"endothelial cell adhesion to vitronectin, collagen I and collagen IV",BCE cells,decreases endothelial cell adhesion
same,plasma half-life,[4],three days

# Reference: patent US7662388B2, “Endogenous peptide and active subfragments thereof” (Innoventus Project AB, priority 2003, dated 2010)
